Drawing on patent US8383139B2 (Bayer CropScience AG, priority 2008, dated 2013), this text covers pest or weed control and chromatographic logP for twelve compounds.

Where only a bound is given, the exact number is not on record here.

The test system of one series is Uromyces appendiculatus. Put plainly: Uromyces test (beans)/protective. Type of series: in vivo. Particulars: 240 h, 100 ppm active substance, protective, evaluation 10 days after inoculation, read-out: degree of effectiveness. How it is done: (§1) • Solvents: 24.5 parts by weight of acetone • 24.5 parts by weight of dimethylacetamide • Emulsifier: 1 part by weight of alkylaryl polyglycol ether (polyoxyethylene (16) tristearylphenyl ether)
(§2) To prepare a suitable active substance composition, 1 part by weight of active substance is mixed with the given amounts of solvents and emulsifier and the concentrate is diluted to the desired concentration using water.
For the testing of protective effectiveness, young plants are sprayed with the active substance composition in the application rate given. After the spray coating has been dried on, the plants are inoculated with an aqueous suspension of the spores of the bean rust pathogen Uromyces appendiculatus and then remain in an incubation chamber at approximately 20° C. and 100% relative humidity for 1 day.
The plants are then placed in a greenhouse at approximately 21° C. and a relative humidity of approximately 90%.
Evaluation is carried out 10 days after the inoculation. In this connection, 0% means a degree of effectiveness corresponding to that of the control, while a degree of effectiveness of 100% means that no infestation is observed.

The subject of the next series is Alternaria solani. Description: Alternaria test (tomato)/protective. The class given is in vivo. Particulars: 72 h, 100 ppm active substance, protective, evaluation 3 days after inoculation, read-out: degree of effectiveness. The procedure:
as §1, §2
For the testing of protective effectiveness, young plants are sprayed with the active substance composition in the application rate given. After the spray coating has been dried on, the plants are inoculated with an aqueous suspension of spores of Alternaria solani. The plants are then placed in an incubation chamber at approximately 20° C. and 100% relative humidity.
Evaluation is carried out 3 days after the inoculation. In this connection, 0% means a degree of effectiveness corresponding to that of the control, while a degree of effectiveness of 100% means that no infestation is observed.

For another series, the system named is Septoria tritici. Description: Septoria tritici test (wheat)/protective. The class given is in vivo. Particulars: Zymoseptoria tritici, 504 h, 500 ppm active substance, protective, evaluation 21 days after inoculation, read-out: degree of effectiveness. The procedure: • Solvent: 50 parts by weight of N,N-dimethylacetamide • Emulsifier: 1 part by weight of alkylaryl polyglycol ether (polyoxyethylene (16) tristearylphenyl ether) To prepare a suitable active substance composition, 1 part by weight of active substance is mixed with the given amounts of solvent and emulsifier and the concentrate is diluted to the desired concentration using water. For the testing of protective effectiveness, young plants are sprayed with the active substance composition at the application rate given. After the spray coating has dried on, the plants are sprayed with a suspension of spores of Septoria tritici. The plants remain in an incubation chamber at 20° C. and 100% relative humidity for 48 hours. The plants are afterwards placed under a transparent hood at 15° C. and 100% relative humidity for a further 60 hours. The plants are placed in a greenhouse at a temperature of approximately 15° C. and a relative humidity of 80%. Evaluation is carried out 21 days after the inoculation. In this connection, 0% means a degree of effectiveness corresponding to that of the control, while a degree of effectiveness of 100% means that no infestation is observed.

The subject of a further series is Sphaerotheca fuliginea. Put plainly: Sphaerotheca test (cucumber)/protective. Particulars: Podosphaera fuliginea, 168 h, 500 ppm active substance, protective, evaluation 7 days after inoculation, read-out: degree of effectiveness. Type of series: in vivo. How it is done: • Solvents: 49 parts by weight of N,N-dimethylformamide • Emulsifier: 1 part by weight of alkylaryl polyglycol ether (polyoxyethylene (16) tristearylphenyl ether) To prepare a suitable active substance composition, 1 part by weight of active substance is mixed with the given amounts of solvents and emulsifier and the concentrate is diluted to the desired concentration using water. For the testing of protective effectiveness, young cucumber plants are sprayed with the active substance composition in the application rate given. One day after the treatment, the plants are inoculated with a suspension of spores of Sphaerotheca fuliginea. Subsequently, the plants are placed in a greenhouse at 70% relative humidity and at a temperature of 23° C. Evaluation is carried out 7 days after the inoculation. In this connection, 0% means a degree of effectiveness corresponding to that of the control, while a degree of effectiveness of 100% means that no infestation is observed.

The nature of series [1]: log P by HPLC on reversed-phase columns (C 18), EEC Directive 79/831 Annex V.A8. The class given is physicochemical. Conditions: reversed-phase C18 HPLC column, pH 2.3, [a] HPLC, acid region pH 2.3, 0.1% aqueous phosphoric acid and acetonitrile; read-out: log p.
For the next series, the system named is Puccinia triticina. Description: Puccinia triticina test (wheat)/protective. Conditions: 192 h, 500 ppm active substance, protective, evaluation 8 days after inoculation, read-out: degree of effectiveness. The class given is in vivo. The procedure: • Solvent: 50 parts by weight of N,N-dimethylacetamide • Emulsifier: 1 part by weight of alkylaryl polyglycol ether (polyoxyethylene (16) tristearylphenyl ether) To prepare a suitable active substance composition, 1 part by weight of active substance is mixed with the given amounts of solvent and emulsifier and the concentrate is diluted to the desired concentration using water. For the testing of protective effectiveness, young plants are sprayed with the active substance composition in the application rate given. After the spray coating has been dried on, the plants are sprayed with spores with a suspension of spores of Puccinia triticina. The plants remain in an incubation chamber at 20° C. and 100% relative humidity for 48 hours. The plants are placed in a greenhouse at a temperature of approximately 20° C. and a relative humidity of approximately 80%. Evaluation is carried out 8 days after the inoculation. In this connection, 0% means a degree of effectiveness corresponding to that of the control, while a degree of effectiveness of 100% means that no infestation is observed.

As to `CCC(c1ccccc1)c1nsc(Oc2cc(C)c(N=CN(C)CC)cc2C)n1` (stereo not shown) [Example 6, N′-(2,5-dimethyl-4-{[3-(1-phenylpropyl)-1,2,4-thiadiazol-5-yl]oxy}phenyl)-N-ethyl-N-methylimidoformamide], the pest or weed control at 100 ppm in the series with Uromyces appendiculatus and in the series on Alternaria solani was not below 70% in each case. Moreover, the pest or weed control at 500 ppm with Septoria tritici, with Sphaerotheca fuliginea and in the series on Puccinia triticina was not below 70% in each case. Further, in series [1], the chromatographic logP came out at 2.08.
As for `CCC(c1ccccc1)c1nsc(Oc2cc(C)c(N=CN3CCCCC3)cc2C)n1` (stereo not shown) [Example 7, 2,5-dimethyl-4-{[3-(1-phenylpropyl)-1,2,4-thiadiazol-5-yl]oxy}-N-(piperidin-1-ylmethylidene)aniline], the pest or weed control at 100 ppm in the series with Uromyces appendiculatus and in the series on Alternaria solani was not below 70% in each case. For the same compound, the pest or weed control at 500 ppm with Septoria tritici, in the series on Sphaerotheca fuliginea and with Puccinia triticina was not below 70% throughout. Further, the chromatographic logP in series [1] was 2.21.
In the case of `Cc1cc(Oc2nc(C(C)c3ccccc3)ns2)c(C)cc1N=CN1CCCCC1` (stereo not shown) [Example 8, 2,5-dimethyl-4-{[3-(1-phenylethyl)-1,2,4-thiadiazol-5-yl]oxy}-N-(piperidin-1-ylmethylidene)aniline], the pest or weed control at 100 ppm in the series with Uromyces appendiculatus and in the series with Alternaria solani was not below 70% each time. Also, the pest or weed control at 500 ppm in the series with Septoria tritici, with Sphaerotheca fuliginea and in the series with Puccinia triticina was not below 70% in each case. The chromatographic logP in series [1] was 1.95.
As to `Cc1cc(Oc2nc(Cc3ccc(Cl)cc3)ns2)c(C)cc1N=CN(C)C(C)C` [Example 9, N′-(4-{[3-(4-chlorobenzyl)-1,2,4-thiadiazol-5-yl]oxy}-2,5-dimethylphenyl)-N-methyl-N-(propan-2-yl)imidoformamide], the pest or weed control at 100 ppm in the series with Uromyces appendiculatus and in the series with Alternaria solani was not below 70% each time. Further, the pest or weed control at 500 ppm in the series on Septoria tritici, in the series on Sphaerotheca fuliginea and in the series on Puccinia triticina was not below 70% in each case. Besides, in series [1], the chromatographic logP is 2.03.
As to `CCN(C)C=Nc1cc(C)c(Oc2nc(Cc3cccc(C(F)(F)F)c3)ns2)cc1C` [Example 10, N′-[2,5-dimethyl-4-({3-[3-(trifluoromethyl)benzyl]-1,2,4-thiadiazol-5-yl}oxy)phenyl]-N-ethyl-N-methylimidoformamide], the pest or weed control at 100 ppm with Uromyces appendiculatus and in the series with Alternaria solani was not below 70% in each case. The pest or weed control at 500 ppm with Septoria tritici, in the series with Sphaerotheca fuliginea and with Puccinia triticina was not below 70% in each case. For the same compound, the chromatographic logP in series [1] was 2.05.
For the compound `Cc1cc(Oc2nc(Cc3cccc(C(F)(F)F)c3)ns2)c(C)cc1N=CN1CCCCC1` [Example 13, 2,5-dimethyl-N-(piperidin-1-ylmethylidene)-4-({3-[3-(trifluoromethyl)benzyl]-1,2,4-thiadiazol-5-yl}oxy)aniline], the pest or weed control at 100 ppm in the series on Uromyces appendiculatus and in the series with Alternaria solani was not below 70% in each case. Besides, the pest or weed control at 500 ppm with Septoria tritici, in the series with Sphaerotheca fuliginea and in the series with Puccinia triticina was not below 70% throughout. In addition, the chromatographic logP in series [1] is 2.28.
On to `Cc1cc(Oc2nc(C(C)c3ccc(Cl)cc3)ns2)c(Cl)cc1N=CN(C)C(C)C` (stereo not shown) [Example 22, N′-[5-chloro-4-({3-[1-(4-chlorophenyl)ethyl]-1,2,4-thiadiazol-5-yl}oxy)-2-methylphenyl]-N-methyl-N-(propan-2-yl)imidoformamide], for which the pest or weed control at 100 ppm with Uromyces appendiculatus and with Alternaria solani was not below 70% in each case. Besides, the chromatographic logP in series [1] came to 2.52. The pest or weed control at 500 ppm with Puccinia triticina is not below 70%.
As to `Cc1cc(Oc2nc(C(C)(C)c3ccc(Cl)cc3)ns2)c(C)cc1N=CN(C)C(C)C` [Example 27, N′-[4-({3-[2-(4-chlorophenyl)propan-2-yl]-1,2,4-thiadiazol-5-yl}oxy)-2,5-dimethylphenyl]-N-methyl-N-(propan-2-yl)imidoformamide], the pest or weed control at 100 ppm with Uromyces appendiculatus and in the series with Alternaria solani was not below 70% throughout. The pest or weed control at 500 ppm in the series on Sphaerotheca fuliginea was not below 70%. For the same compound, in series [1], the chromatographic logP was 2.71.
`Cc1cc(Oc2nc(Cc3ccccc3C(F)(F)F)ns2)c(C)cc1N=CN1CCCCC1` [Example 43, 2,5-dimethyl-N-(piperidin-1-ylmethylidene)-4-({3-[2-(trifluoromethyl)benzyl]-1,2,4-thiadiazol-5-yl}oxy)aniline]: the pest or weed control at 100 ppm in the series with Uromyces appendiculatus and in the series on Alternaria solani was not below 70% each time. Besides, the pest or weed control at 500 ppm in the series on Sphaerotheca fuliginea and in the series on Puccinia triticina was not below 70% throughout. The chromatographic logP in series [1] came out at 2.15.
As to `Cc1cc(Oc2nc(C3(c4ccc(Cl)cc4)CC3)ns2)c(Cl)cc1N=CN1CCCCC1` [Example 44, 5-chloro-4-({3-[1-(4-chlorophenyl)cyclopropyl]-1,2,4-thiadiazol-5-yl}oxy)-2-methyl-N-(piperidin-1-ylmethylidene)aniline], in the series with Alternaria solani, the pest or weed control at 100 ppm is not below 70%. The pest or weed control at 500 ppm in the series with Septoria tritici, with Sphaerotheca fuliginea and in the series with Puccinia triticina was not below 70% each time. The chromatographic logP in series [1] was found to be 2.76.
`Cc1cc(Oc2nc(Cc3ccc4c(c3)OCO4)ns2)c(C)cc1N=CN1CCCCC1` [Example 45, 4-{[3-(1,3-benzodioxol-5-ylmethyl)-1,2,4-thiadiazol-5-yl]oxy}-2,5-dimethyl-N-(piperidin-1-ylmethylidene)aniline]: in the series on Alternaria solani, the pest or weed control at 100 ppm was not below 70%. Moreover, the pest or weed control at 500 ppm in the series on Septoria tritici, with Sphaerotheca fuliginea and in the series with Puccinia triticina was not below 70% throughout. Besides, the chromatographic logP in series [1] came to 1.84.
Regarding `CCN(C)C=Nc1cc(C)c(Oc2nc(Cc3ccc4c(c3)OCO4)ns2)cc1C` [Example 46, N′-(4-{[3-(1,3-benzodioxol-5-ylmethyl)-1,2,4-thiadiazol-5-yl]oxy}-2,5-dimethylphenyl)-N-ethyl-N-methylimidoformamide], the pest or weed control at 100 ppm with Alternaria solani was not below 70%. Also, the pest or weed control at 500 ppm with Septoria tritici, with Sphaerotheca fuliginea and with Puccinia triticina was not below 70% throughout. The chromatographic logP in series [1] is 1.65.
